This experiment concerns the target Mitogen-activated protein kinase 14 (Homo sapiens, UniProt Q16539). In words: Displacement of SKF86002 from recombinant human p38alpha by fluorescence-based assay.

The IC50 is the point on the concentration scale where inhibition reaches its midpoint.

Mitogen-activated protein kinase 14, sequence (Q16539 whole entry): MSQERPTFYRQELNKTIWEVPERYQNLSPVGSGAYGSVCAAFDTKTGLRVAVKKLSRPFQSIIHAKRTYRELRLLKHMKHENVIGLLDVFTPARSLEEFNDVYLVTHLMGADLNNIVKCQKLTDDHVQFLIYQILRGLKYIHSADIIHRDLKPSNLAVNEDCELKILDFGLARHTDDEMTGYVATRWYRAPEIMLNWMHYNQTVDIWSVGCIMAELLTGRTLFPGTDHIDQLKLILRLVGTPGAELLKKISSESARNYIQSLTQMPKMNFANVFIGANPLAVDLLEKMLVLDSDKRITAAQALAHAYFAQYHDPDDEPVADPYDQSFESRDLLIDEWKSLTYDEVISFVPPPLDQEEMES

In the case of `CC(O)c1nc(-c2cccc(CO)c2)c(-c2ccnc(NC(=O)c3ccccc3)c2)s1` (stereo not given), the IC50 (read-out: IC50) amounted to 460 nM.

For `CCc1nc(-c2cccc(CO)c2)c(-c2ccnc(NC(=O)c3ccccc3)c2)s1`, for the setting “read-out: IC50”, the IC50 is 310 nM.

`Cc1cccc(-c2nc(C(C)O)sc2-c2ccnc(NC(=O)c3ccccc3)c2)c1` (stereo not given): the IC50 (read-out: IC50) is 38 nM.

On to `CCc1nc(-c2cccc(C(=O)O)c2)c(-c2ccnc(NC(=O)c3ccccc3)c2)s1`, for which, under “read-out: IC50”, the IC50 was 1500 nM.

`CC(O)c1nc(-c2cccc(C(=O)O)c2)c(-c2ccnc(NC(=O)c3ccccc3)c2)s1` (stereo not given): the IC50 result is “Not Active”.

Values taken from ChEMBL document CHEMBL3217704, “Combination of biotransformation by P450 BM3 mutants with on-line post-column bioaffinity and mass spectrometric profiling as a novel strategy to diversify and characterize p38 kinase inhibitors” (Medchemcomm, 2013).
